Data reported in patent US9526785B2, “Pharmaceuticals for oral delivery” (Enteris BioPharma, Inc., priority 2013, dated 2016).
Read-outs that look alike come from different tables or passages of the source.

Assay: Tigecycline plasma PK and % F after intraduodenal (ID) injection in anesthetized rats
Assay type: in vivo, Sprague-Dawley Rats
Conditions: for AUC(0-t) / Tmax / bioavailability / Cmax: female, Sprague-Dawley, rat, plasma; for bioavailability: read-out: % F, mean
Description: Animals weighed approximately 250 g at the time of testing. Rats were fasted overnight (with water available), prior to dosing.
Intravenous (IV) doses were administered as a bolus injection into the left carotid […] at a dose volume of 1.6 mL/kg. Intraduodenal doses were administered as bolus injections into the duodenum at a dose volume of 1.2 mL/kg.
An additional study was conducted exploring the effect of formulation pH at constant CA and LLC concentrations (RA867).
Female rats were maintained in groups of 3 per polycarbonate (or equivalent) shoebox cage with fresh wood chip bedding at 20-22° C. under a 12 hour on/off light:dark cycle. […] After the rats went limp they were injected intraperitoneally (IP) with 0.1 mL ketamine/xylazine. The anesthetic state was maintained by IP injection of ketamine/xylazine on an as needed basis. Animal weights were determined post-anesthesia induction.
An indwelling catheter for blood sampling was inserted into the right carotid artery by exposing the trachea with Mayo scissors, clamping the bottom of the […] and tying off the top with surgical suture. The area between was nicked with small sharp scissors and Intramedic polyethylene tubing was inserted into the nicked area. The artery with the tubing was sealed with suture to prevent leakage. A 23-gauge Intramedic Luer Stub Adapter was inserted into the cannula and attached to a 3 way valve which was connected to a 3 cc syringe filled with 0.9% normal saline and a 1 cc syringe filled with 5 U/mL sodium heparin for blood sampling.
An intraduodenal injection was utilized to mimic oral delivery of an enterically coated capsule or tablet formulation. […] Mayo scissors were used to expose the duodenum and the site of administration was identified by measuring 5 cm from the junction of the stomach and the duodenum towards the jejunum. The measured site was identified by inserting a small piece of surgical suture underneath the site for injection. After the formulation was injected, the abdominal cavity was closed with surgical clips.
Blood samples were collected in tubes containing 20 μL 180 mM EDTA. The tubes were maintained on ice and then centrifuged at approximately 3000 rpm at 4° C. for 5 minutes. Plasma was harvested immediately after centrifugation of the samples and stored at −20° C. pending analysis.
Minocycline (VWR international) was used as an internal standard. Sample processing/clean-up of plasma samples was carried out offline by protein precipitation with acidified acetonitrile.
The HPLC system consisted of Shimadzu SIL-HTc HPLC system equipped with dual Shimadzu LC-10ADvp isopumps, a Shimadzu CTO-10ASvp column temperature controller and a Shimadzu SPD-10Avp variable wavelength detector. […] Mobile phase A consisted of 23 mM phosphate buffer pH 2.5 with 6 mM 1-octanesulfonic acid, while mobile phase B consisting of pure acetonitrile. […] The mobile phase flow rate was 1.2 mL/min. Detection was performed using the SPD-10Avp variable wavelength detector set at 350 nm, with a sensitivity of 0.001 aufs.
The samples were then centrifuged under refrigeration at 13 k rpm for 30 minutes. The supernatant was taken and the liquid was removed to dryness in a turbovap. The samples were then reconstituted in 55 μL 0.1M phosphate buffer, pH 3.8. Samples were maintained at 10° C. while on the autoinjector during sequence. The injection volume was 50 μL. The unknown concentration in rat plasma samples was determined by interpolation of the peak area ratios of analyte:internal standard versus the ratio of their nominal concentrations into the regression line obtained from calibration standards spiked in pooled rat plasma. No regression weighting was used for the calculations. […] The calibration curve covered the range of 0.05 μg/mL to 5.0 μg/mL.

[1] = ID, 400 mM CA (pH 3.5), 26 mM LLC, 4.8 mg/kg (RA851), parent Tigecycline peak only, 4.8 mg/kg
[2] = ID, 400 mM CA (pH 3.5), 26 mM LLC, 9.0 mg/kg (RA853), parent Tigecycline peak only, 9 mg/kg
[3] = 4.6 mg/kg, RA861, ID, 26 mM LLC alone, mean dose 4.6 mg/kg
[4] = 4.6 mg/kg, RA861, ID, 400 mM CA/26 mM LLC, mean dose 4.6 mg/kg
[5] = 4.8 mg/kg, ID, PBS, 4.8 mg/kg (RA851)
[6] = 4.8 mg/kg, RA861, ID, 400 mM CA alone, mean dose 4.8 mg/kg
[7] = 4.8 mg/kg, pH 3.5, ID, 100 mM CA (pH 3.5), 26 mM LLC, 4.8 mg/kg (RA851)
[8] = 4.8 mg/kg, pH 3.5, ID, 400 mM CA (pH 3.5), 26 mM LLC, 4.8 mg/kg (RA851), parent Tigecycline peak only
[9] = 4.8 mg/kg, pH 3.5, RA867, ID, 400 mM CA/26 mM LLC pH 3.5, 4.8 mg/kg
[10] = 4.8 mg/kg, pH 6, RA867, ID, 400 mM CA/26 mM LLC pH 6.0, 4.8 mg/kg
[11] = 9 mg/kg, ID, PBS, 9.0 mg/kg (RA853), without animal RA853-6
[12] = 9 mg/kg, pH 3.5, ID, 100 mM CA (pH 3.5), 26 mM LLC, 9.0 mg/kg (RA853)
[13] = 9 mg/kg, pH 3.5, ID, 400 mM CA (pH 3.5), 26 mM LLC, 9.0 mg/kg (RA853), parent Tigecycline peak only

Compound: CN(C)c1cc(NC(=O)CNC(C)(C)C)c(O)c2c1C[C@H]1C[C@H]3[C@H](N(C)C)C(O)=C(C(N)=O)C(=O)[C@@]3(O)C(O)=C1C2=O [Tigecycline]
- increase of tigecycline plasma concentrations (ID, 26 mM LLC and 100 mM citrate pH 3.5, versus PBS): 7-9 x
- Cmax, Mean (ID, 100 mM CA (pH 3.5), 26 mM LLC, 4.8 mg/kg (RA851), 4.8 mg/kg): 714 ng/mL
- % F, Mean (ID, 100 mM CA (pH 3.5), 26 mM LLC, 4.8 mg/kg (RA851), relative to 0.64 mg/kg IV): 10.85%
- Tmax, Mean (ID, 100 mM CA (pH 3.5), 26 mM LLC, 9.0 mg/kg (RA853), 9 mg/kg): 16.667 min
- % F, Mean (ID, 100 mM CA (pH 3.5), 26 mM LLC, 9.0 mg/kg (RA853), relative to 12 mg/kg IV): 11.36%
- increase of mean % F (ID, 100 mM CA pH 3.5, 26 mM LLC, versus PBS): 4-7 fold
- Cmax, Mean [1]: 792 ng/mL
- Tmax, Mean [1]: 16.7 min
- AUC(0-t), Mean [2]: 137.6 µg·min/mL
- Cmax, Mean [2]: 2492 ng/mL
- AUC(0-t), Mean (ID, PBS, 9.0 mg/kg (RA853), without animal RA853-6, 9 mg/kg): 15.7 µg·min/mL
- % F, Mean (ID, PBS, 9.0 mg/kg (RA853), without animal RA853-6, relative to 12 mg/kg IV): 2.76%
- AUC(0-t) [3]: 68 ng·h/mL
- Tmax [3]: 18 min
- bioavailability [3]: 1%
- Cmax (4.6 mg/kg, RA861, ID, 26 mM LLC alone, mean dose 4.6 mg/kg, read-out: Cmax, mean): 64.1 ng/mL
- AUC(0-t) [4]: 139 ng·h/mL
- Tmax [4]: 10 min
- bioavailability [4]: 2.1%
- Cmax (4.6 mg/kg, RA861, ID, 400 mM CA/26 mM LLC, mean dose 4.6 mg/kg, read-out: Cmax, mean): 30.6 ng/mL
- AUC(0-t) [5]: 116 ng·h/mL
- Tmax [5]: 90 min
- Cmax (4.8 mg/kg, ID, PBS, 4.8 mg/kg (RA851), read-out: Cmax, Mean): 100 ng/mL
- AUC(0-t) [6]: 17.5 ng·h/mL
- Tmax [6]: 20 min
- bioavailability [6]: 0.3%
- Cmax (4.8 mg/kg, RA861, ID, 400 mM CA alone, mean dose 4.8 mg/kg, read-out: Cmax, mean): 11.7 ng/mL
- AUC(0-t) [7]: 823 ng·h/mL
- Tmax [7]: 20 min
- Cmax (4.8 mg/kg, pH 3.5, ID, 100 mM CA (pH 3.5), 26 mM LLC, 4.8 mg/kg (RA851), read-out: Cmax, Mean): 710 ng/mL
- AUC(0-t) [8]: 1430 ng·h/mL
- Tmax [8]: 17 min
- Cmax (4.8 mg/kg, pH 3.5, ID, 400 mM CA (pH 3.5), 26 mM LLC, 4.8 mg/kg (RA851), parent Tigecycline peak only, read-out: Cmax, Mean): 790 ng/mL
- AUC(0-t) [9]: 537 ng·h/mL
- Tmax [9]: 12 min
- bioavailability [9]: 7.7%
- Cmax (4.8 mg/kg, pH 3.5, RA867, ID, 400 mM CA/26 mM LLC pH 3.5, 4.8 mg/kg, read-out: Cmax, mean): 488 ng/mL
- AUC(0-t) [10]: 385 ng·h/mL
- Tmax [10]: 43 min
- bioavailability [10]: 5.5%
- Cmax (4.8 mg/kg, pH 6, RA867, ID, 400 mM CA/26 mM LLC pH 6.0, 4.8 mg/kg, read-out: Cmax, mean): 278 ng/mL
- AUC(0-t) [11]: 262 ng·h/mL
- Tmax [11]: 30 min
- Cmax (9 mg/kg, ID, PBS, 9.0 mg/kg (RA853), without animal RA853-6, read-out: Cmax, Mean): 220 ng/mL
- AUC(0-t) [12]: 1280 ng·h/mL
- Tmax [12]: 17 min
- Cmax (9 mg/kg, pH 3.5, ID, 100 mM CA (pH 3.5), 26 mM LLC, 9.0 mg/kg (RA853), read-out: Cmax, Mean): 2060 ng/mL
- AUC(0-t) [13]: 2300 ng·h/mL
- Tmax [13]: 10 min
- Cmax (9 mg/kg, pH 3.5, ID, 400 mM CA (pH 3.5), 26 mM LLC, 9.0 mg/kg (RA853), parent Tigecycline peak only, read-out: Cmax, Mean): 2490 ng/mL
- AUC(0-t) ([…], RA869, ID, 26 mM LLC only): 91.7 ng·h/mL
- Tmax ([…], RA869, ID, 26 mM LLC only): 10 min
- bioavailability ([…], RA869, ID, 26 mM LLC only, […]): 8.9%
